US9427442B2, “Fluoroalkyl and fluorocycloalkyl 1,4-benzodiazepinone compounds” (BRISTOL-MYERS SQUIBB COMPANY, priority 2012, dated 2016)

Tests used:
[1] = tested on: TALL-1; assay: Human Tumor Xenograft Models in Mice (TALL-1); type: in vivo
Procedure: Human Tumor Xenograft Models in Mice
Mice were fed food and water ad libitum.
When death occurred, the day of death was recorded.

[2] = tested on: human Notch 1; assay: Notch-CBF1 Transactivation Assay (Notch 1); type: cell-based; details: read-out: Notch 1 (IC50); HeLa cells transfected with truncated Notch 1 and CBF1 luciferase reporter; 18 hours; average of N experiments
Source text: (§1) Notch-CBF1 Transactivation Assay
(§2) The Notch-CBF1 (C-promoter binding factor I) cell based transactivation assay is based on the ability of the released Notch intracellular domain fragments (NICDs) to function as transcription factors in conjunction with CBF1 and other nuclear factors. Luciferase assays were used to measure the antagonism of Notch-CBF1 transcriptional activity. HeLa cervical cancer cells are transiently co-transfected with pCDNA3.1/Hygro plasmids containing truncated Notch 1, Notch 2, Notch 3, or Notch 4 receptors and a PGL3 luciferase reporter vector containing 4 copies of CBF1 binding site. The cells were then tested for Notch-CBF1 activity in the absence or presence of test compounds. HeLa cells, maintained in DMEM (high glucose with HEPES), 1× glutamine/penicillin/streptomycin and 10% Fetal Bovine serum, were transiently transfected in a T175 Flask (4.5×10^6 cells/flask) using the Monster Transfection Kit (Minis #MIR2906) according to manufacturers specifications. Table 5 denotes respective DNA quantity for the transfections.
(§3) Assay media (5 μL) containing test compounds in final concentrations ranging from 5 μM to 8.4×10^−5 μM (3 fold serial dilutions) were added to the cells and the cell plates were then incubated for 18 hours at 37° C. and 5% CO2. Control wells contained DMSO vehicle (total counts) or 0.5 μM of an in-house small molecule inhibitor (background counts). Duplicates were used for each sample. Luciferase activity was measured after a 20-minute incubation with 50 μl STEADY-GLO® luciferase reagents according to manufacturer's specifications (Promega, Cat. #E2550) and analyzed by Envision plate reader (PerkinElmer, Boston, Mass.).
(§4) The antagonist effect of compounds was expressed as 100×[1−(average sample−average background)/(average total−average background)] where sample is the luciferase activity in the presence of test compound, background is equal to the luciferase activity in the presence of the small molecule inhibitor control and the total is signal induced in DMSO wells.

[3] = tested on: human Notch 3; assay: Notch-CBF1 Transactivation Assay (Notch 3); type: cell-based; details: read-out: Notch 3 (IC50); HeLa cells transfected with truncated Notch 3 and CBF1 luciferase reporter; 18 hours; average of N experiments
Source text: as §1, §2, §3, §4

[4] = Human metabolic stability half-life assay; type: in vitro ADME; details: pH 7.4; human liver microsomes, NADPH, 0.5 μM compound, 45-minute time course; read-out: HLM (t1/2, min)
Source text: Metabolic Stability Half-Life Panel

Compound | antitumor activity with oral administration (PO) ([1]; Human Tumor Xenograft Models in mice, oral) | Antitumor Activity in TALL-1 (LCK) BID dosing ([1]; Oral Administration, Dose 10, Schedule BIDx10, LCK = Log Cell Kill, NOD-SCID mice) | IC50 [2] [nM] | IC50 [3] [nM] | half-life at 0.5 µM [4] [min]
Cc1cccc2c1NC(=O)[C@@H](NC(=O)[C@H](CCC(F)(F)F)[C@H](CC1CC(F)(F)C1)C(N)=O)N=C2c1ccccc1 [Example 1, (2R,3S)-3-((3,3-Difluorocyclobutyl)methyl)-N-((3S)-9-methyl-2-oxo-5-phenyl-2,3-dihydro-1H-1,4-benzodiazepin-3-yl)-2-(3,3,3-trifluoropropyl)succinamide] | showed antitumor activity | 2.7 | 3 | 2.4 | 60
C[C@@H](C[C@H](C(N)=O)[C@@H](CCC(F)(F)F)C(=O)N[C@H]1N=C(c2ccccc2)c2cccc(F)c2NC1=O)C(F)(F)F [Example 19, (2R,3S)—N-((3S)-9-Fluoro-2-oxo-5-phenyl-2,3-dihydro-1H-1,4-benzodiazepin-3-yl)-3-((2S)-3,3,3-trifluoro-2-methylpropyl)-2-(3,3,3-trifluoropropyl)succinamide] |  |  | 2.9 | 2.4 | 80
NC(=O)[C@@H](CCCF)[C@@H](CCC(F)(F)F)C(=O)N[C@H]1N=C(c2ccccc2)c2cccc(Cl)c2NC1=O [Example 20, (2R,3S)—N-((3S)-9-Chloro-2-oxo-5-phenyl-2,3-dihydro-1H-1,4-benzodiazepin-3-yl)-3-(3-fluoropropyl)-2-(3,3,3-trifluoropropyl)succinamide] |  |  | 10.8 | 16.5 | 107
COc1cccc2c1NC(=O)[C@@H](NC(=O)[C@H](CCC(F)(F)F)[C@H](CCC(C)(F)F)C(N)=O)N=C2c1ccccc1 [Example 21] |  |  | 7.5 | 13.8 | 76
C[C@H](C[C@H](C(N)=O)[C@@H](CCC(F)(F)F)C(=O)N[C@H]1N=C(c2ccccc2)c2cccc(Cl)c2NC1=O)C(F)(F)F [Example 22, (2R,3S)—N-((3S)-9-Chloro-2-oxo-5-phenyl-2,3-dihydro-1H-1,4-benzodiazepin-3-yl)-3-((2R)-3,3,3-trifluoro-2-methylpropyl)-2-(3,3,3-trifluoropropyl)succinamide] |  |  | 3.2 | 9.3 | 117
C[C@@H](C[C@H](C(N)=O)[C@@H](CCC(F)(F)F)C(=O)N[C@H]1N=C(c2ccccc2)c2cccc(Cl)c2NC1=O)C(F)(F)F [Example 23, (2R,3S)—N-((3S)-9-Chloro-2-oxo-5-phenyl-2,3-dihydro-1H-1,4-benzodiazepin-3-yl)-3-((2S)-3,3,3-trifluoro-2-methylpropyl)-2-(3,3,3-trifluoropropyl)succinamide] |  |  | 5.1 | 3.2 | 111
CC(F)(F)CC[C@H](C(N)=O)[C@@H](CCC(F)(F)F)C(=O)N[C@H]1N=C(c2ccccc2)c2cccc(Cl)c2NC1=O [Example 24, (2R,3S)—N-((3S)-9-Chloro-2-oxo-5-phenyl-2,3-dihydro-1H-1,4-benzodiazepin-3-yl)-3-(3,3-difluorobutyl)-2-(3,3,3-trifluoropropyl)succinamide] |  |  | 3.9 | 5.4 | > 120
Cc1cccc2c1NC(=O)[C@@H](NC(=O)[C@H](CCC(F)(F)F)[C@H](CC1(F)CCC1)C(N)=O)N=C2c1ccccc1 [Example 25, (2R,3S)-3-((1-Fluorocyclobutyl)methyl)-N-((3S)-9-methyl-2-oxo-5-phenyl-2,3-dihydro-1H-1,4-benzodiazepin-3-yl)-2-(3,3,3-trifluoropropyl)succinamide] |  |  | 3.8 | 20.1 | 33
